From patent US20150004704A1, “COMPOSITIONS AND METHODS FOR INCREASING OIL CONTENT IN ALGAE” (A.B. Seeds Ltd., priority 2009, published 2015)
Several values for one entry are separate records, joined by “and”; a condition that tells them apart may be missing. Equal entries are not always repeated.

How the values were obtained:
Assay type in all cases: cell-based
[1] = system: Phaeodactylum tricornutum; experiment: Oil content by Nile Red staining with hormone supplements (Example 3); details: 1 week, ratio to average of two controls, triplicate
Method: (§1) TX, and were grown at 22° C. under constant white light at an intensity of 175 micromole photon m^−2 s−1. Chlamydomonas reinhardtii (UTEX strain 90), Chlorella vulgaris (UTEX 2714) and Haematococcus pluvialis (UTEX strain 2505) were grown in TAP medium {Harris E H: The Chlamydomonas sourcebook: A comprehensive guide to biology and laboratory use. New-York: Academic Press; 1989}. Phaeodactylum tricornutum (UTEX strain 642) was grown in a modified LDM medium {Lewin, R. A., 1959. The isolation of algae. Rev. algol. no. 3: 182-197}.
(§2) Algal cells of Chlamydomonas reinhardtii, Phaeodactylum tricornutum and Haematococcus pluvialis, were each grown to a concentration of 10^5 cells/ml and divided into 7×250-ml flasks, each containing 50 ml medium with the following supplements (all values are final hormone concentrations):
(§3) IAA: 1.0 mg/liter, NAA: 1.0 mg/liter, 2,4-D: 1.0 mg/liter, 6-BAP: 0.1 mg/liter, and Kinetin: 0.1 mg/liter.
(§4) Oil content was measured in triplicate 1 week after addition of the hormones to the medium, using Nile Red staining: 200 μl of algal cells were placed in a 96-well plate (Costar 3596), mixed with 10 μl of Nile Red solution (N3013, Sigma. 1 mg/ml stock in acetone) and incubated for 10 minutes at room-temperature. Fluorescence was measured using a Thermo Electron Fluroskan Ascent with excitation at 485 nm and emission at 590 nm 200 μl of fresh growth media with 10 μl of Nile Red were used for blank measurements. Fluorescence was normalized against cell density as measured by an EL×808 microplate reader (BIOTEK Instruments Inc) at 630 nm and verified by cell count of selected samples. For each treatment the normalized oil content was defined as the oil content divided by the cell density. The average of the normalized oil content of the triplicates for each treatment was calculated. The effect of each treatment was determined by the ratio between the average of the normalized oil content and the average of the two control experiments.

[2] = system: Chlamydomonas reinhardtii; experiment: as above; details: 1 week, ratio to average of two controls, triplicate
Method: as §1, §2, §3, §4

[3] = system: Haematococcus pluvialis; experiment: as above; details: 1 week, ratio to average of two controls, triplicate
Method: as §1, §2, §3, §4

[4] = system: Chlamydomonas reinhardtii; experiment: Oil content by Nile Red staining, C. reinhardtii with hormone supplements (Example 2); set-up: Oil content: unit not given here; details: for Oil content: Nile Red fluorescence; for Oil content / Normalized oil content: duplicates; for Average normalized oil content: average of duplicates; for Normalized oil content: oil content divided by cell density; for Effect: ratio of average normalized oil content to average of two controls
Method: as §1
(§5) Algae were grown to a concentration of 10^5 cells/ml and divided into 10×250-ml flasks, each containing 50 ml TAP medium with the following hormone supplements (all values are final hormone concentrations):
(§6) IAA: 0.5 mg/liter and 1 mg/liter, NAA: 0.5 mg/liter and 1 mg/liter, 6-BAP: 0.05 mg/liter and 0.1 mg/liter, and Kinetin: 0.05 mg/liter and 0.1 mg/liter. No supplement was added to Controls 1 and 2.
(§7) Oil content was measured, in duplicate, one week after addition of the hormones to the medium, using Nile Red staining. 200 μl of Chlamydomonas reinhardtii cells were placed in a 96-well plate (Costar 3596), mixed with 10 μl of Nile Red solution (N3013, Sigma. 1 mg/ml stock in acetone) and incubated for 15 minutes at room-temperature. Fluorescence was measured using a Thermo Electron Fluroskan Ascent with excitation at 544 nm and emission at 590 nm 200 μl of fresh growth media with 10 μl of Nile Red were used for blank measurements. Fluorescence was normalized against cell density as measured by an EL×808 microplate reader (BIOTEK Instruments Inc) at 450 nm and verified by cell count of selected samples.
(§8) The growth rate in each flask was estimated by measuring the OD (optical density, at 450 nm), which represents cell density. For each treatment the normalized oil content was defined as the oil content divided by the cell density. The average of the normalized oil content of the duplicates for each treatment was calculated. The effect of each treatment was determined by the ratio between the average of the normalized oil content and the average of the two control experiments.

[5] = system: Chlamydomonas reinhardtii; experiment: Cell density (OD 450 nm), C. reinhardtii with hormone supplements (Example 2); details: 1 week after addition, duplicates
Method: as §5, §6, §7, §8

| SMILES | Effect of addition of hormones to growth medium on oil content ([1]; supplement 1 mg/l) | Effect of addition of hormones to growth medium on oil content ([2]; supplement 1 mg/l) | Effect of addition of hormones to growth medium on oil content ([3]; supplement 1 mg/l) | Effect of addition of hormones to growth medium on oil content ([1]; supplement 0.1 mg/l) | Effect of addition of hormones to growth medium on oil content ([2]; supplement 0.1 mg/l) | Effect of addition of hormones to growth medium on oil content ([3]; supplement 0.1 mg/l) | Oil content ([4]; supplement 0.05 mg/l, 1 week) | Average normalized oil content ([4]; supplement 0.05 mg/l) | Normalized oil content ([4]; supplement 0.05 mg/l) | Effect ([4]; supplement 0.05 mg/l) | Oil content ([4]; supplement 0.1 mg/l, 1 week) | Average normalized oil content ([4]; supplement 0.1 mg/l) | Normalized oil content ([4]; supplement 0.1 mg/l) | Effect ([4]; supplement 0.1 mg/l) | Cell density ([5]; supplement 0.05 mg/l) | Cell density ([5]; supplement 0.1 mg/l) | Oil content ([4]; supplement 0.5 mg/l, 1 week) | Average normalized oil content ([4]; supplement 0.5 mg/l) | Normalized oil content ([4]; supplement 0.5 mg/l) | Effect ([4]; supplement 0.5 mg/l) | other results |
| --- | --- | --- | --- | --- | --- | --- | --- | --- | --- | --- | --- | --- | --- | --- | --- | --- | --- | --- | --- | --- | --- |
| O=C(O)COc1ccc(Cl)cc1Cl [2,4-D, 2,4-dichlorophenoxy acetic acid] | 1.09 ± 0.04 | 1.21 ± 0.03 | 1.69 ± 0.51 |  |  |  |  |  |  |  |  |  |  |  |  |  |  |  |  |  |  |
| c1ccc(CNc2ncnc3nc[nH]c23)cc1 [6-BAP, 6-Benzylaminopurine] |  |  |  | 1.32 ± 0.20 | 1.22 ± 0.13 | 1.28 ± 0.20 | 2.709 and 2.587 | 9.41 | 9.28 and 9.55 | 1.29 ± 0.02 | 3.04 and 2.891 | 10.65 | 10.74 and 10.55 | 1.46 ± 0.02 | 0.29 and 0.27 | 0.28 and 0.27 |  |  |  |  |  |
| O=C(O)Cc1c[nH]c2ccccc12 [IAA, Indole-3-acetic acid] | 0.97 ± 0.04 | 1.05 ± 0.11 | 0.96 ± 0.15 |  |  |  |  |  |  |  |  |  |  |  |  |  | 2.747 and 2.748 | 10.17 | 9.57 and 10.78 | 1.39 ± 0.11 | Oil content ([4]; supplement 1.0 mg/l, 1 week): 3.283 and 3.635; Average normalized oil content ([4]; supplement 1.0 mg/l): 10.92; Normalized oil content ([4]; supplement 1.0 mg/l): 9.89 and 11.96; Effect ([4]; supplement 1.0 mg/l): 1.49 ± 0.20; Cell density ([5]; supplement 0.5 mg/l): 0.29 and 0.26; Cell density ([5]; supplement 1.0 mg/l): 0.33 and 0.30 |
| c1coc(CNc2ncnc3[nH]cnc23)c1 [Kinetin] |  |  |  | 1.19 ± 0.02 | 1.23 ± 0.03 | 1.09 ± 0.03 | 3.023 and 3.071 | 10.47 | 9.85 and 11.09 | 1.43 ± 0.12 | 3.503 and 3.38 | 12.24 | 11.91 and 12.57 | 1.67 ± 0.06 | 0.31 and 0.28 | 0.29 and 0.27 |  |  |  |  | increase compared to controls (oil content) ([4]; 0.1 mg/liter, 1 week, maximum effect): 67% |
| O=C(O)Cc1cccc2ccccc12 [NAA, α-Naphthaleneacetic acid] | 0.90 ± 0.07 | 0.99 ± 0.01 | 1.49 ± 0.35 |  |  |  |  |  |  |  |  |  |  |  |  |  | 2.677 and 2.59 | 8.67 | 8.44 and 8.90 | 1.19 ± 0.04 | Oil content ([4]; supplement 1.0 mg/l, 1 week): 3.059 and 3.232; Average normalized oil content ([4]; supplement 1.0 mg/l): 10.36; Normalized oil content ([4]; supplement 1.0 mg/l): 9.84 and 10.88; Effect ([4]; supplement 1.0 mg/l): 1.42 ± 0.10; Cell density ([5]; supplement 0.5 mg/l): 0.32 and 0.29; Cell density ([5]; supplement 1.0 mg/l): 0.31 and 0.30 |
